Target: T1, B. thetaiotaomicron NanH sialidase (NanH-His) (Bacteroides thetaiotaomicron, UniProt Q8AAK9)
T1 construct: gene BT_0455
T1 sequence (Q8AAK9 23-544): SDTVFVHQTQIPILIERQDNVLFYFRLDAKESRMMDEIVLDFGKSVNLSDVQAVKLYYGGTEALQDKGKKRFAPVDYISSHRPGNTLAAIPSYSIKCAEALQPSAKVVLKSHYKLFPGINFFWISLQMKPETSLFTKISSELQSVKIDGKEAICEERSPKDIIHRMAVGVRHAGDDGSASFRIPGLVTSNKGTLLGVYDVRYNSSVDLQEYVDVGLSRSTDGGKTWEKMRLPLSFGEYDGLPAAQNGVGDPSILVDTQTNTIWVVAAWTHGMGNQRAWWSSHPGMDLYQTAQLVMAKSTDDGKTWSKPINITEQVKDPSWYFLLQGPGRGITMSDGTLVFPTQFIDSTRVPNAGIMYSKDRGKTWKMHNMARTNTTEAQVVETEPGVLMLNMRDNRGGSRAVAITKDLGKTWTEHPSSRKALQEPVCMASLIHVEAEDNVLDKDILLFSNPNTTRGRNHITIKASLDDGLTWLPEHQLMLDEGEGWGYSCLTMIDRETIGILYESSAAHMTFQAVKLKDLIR
Experiment: fluorogenic sialidase assay, 4-methylumbelliferone release (ex […] nm, em […] nm)
Format: biochemical
Conditions: 100 uM 4-MU-Sia, PBS pH 7.4; used to test fractions and estimate milliunits

In the case of `CC(=O)N[C@H]1[C@H]([C@H](O)[C@H](O)CO)OC(Oc2ccc3c(C)cc(=O)oc3c2)(C(=O)O)C[C@@H]1O` (stereo partly shown) [4-methylumbelliferyl-N-acetylneuraminic acid], the “fluorogenic sialidase assay, 4-methylumbelliferone release (ex 365 nm, em 440 nm)” value is reported as “Fractions were tested for activity with the fluorogenic sialidase substrate 4-methylumbelliferyl-N-acetylneuraminic acid”.
